Reference: ChEMBL document CHEMBL3124770, “Rugulactone derivatives act as inhibitors of NF-κB activation and modulates the transcription of NF-κB dependent genes in MDA-MB-231cells” (Bioorg Med Chem Lett, 2014)
Calls of active or inactive are those of the source. The calls are words filed in the database; no cut-off is given here.

Columns and labels:
[1] = system: MDA-MB-231; assay: Inhibition of NFkappaB activity in estrogen receptor-negative human MDA-MB-231 cells assessed as reduction of Bcl-xL expression at 2 uM after 24 hrs by Western blotting analysis; type: cell-based
[2] = system: MDA-MB-231; assay: Cell cycle arrest in estrogen receptor-negative human MDA-MB-231 cells assessed as accumulation at G2/M phase at 2 uM after 24 hrs by Propidium iodide staining-based flow cytometric analysis (reference value: 26.33 +/- 3.05%); type: functional
[3] = system: MDA-MB-231; assay: Inhibition of NFkappaB activity in estrogen receptor-negative human MDA-MB-231 cells assessed as retention of NFKappaB/Rel A in cytoplasm at 2 uM after 24 hrs by DAPI/PI staining-based confocal microscopy; type: cell-based
[4] = system: MDA-MB-231; assay: Reduction in HDAC-8 nuclear expression in estrogen receptor-negative human MDA-MB-231 cells at 2 uM after 24 hrs by Western blotting analysis; type: functional, cell-based
[5] = system: MDA-MB-231; assay: Inhibition of NFkappaB activity in estrogen receptor-negative human MDA-MB-231 cells assessed as reduction of p65 expression at 2 uM after 24 hrs by Western blotting analysis; type: cell-based
[6] = system: MDA-MB-231; assay: Effect on p21 gene expression in estrogen receptor-negative human MDA-MB-231 cells at 2 uM after 24 hrs by luciferase reporter gene assay; type: functional, cell-based
[7] = system: MDA-MB-231; assay: Reduction in HDAC-3 nuclear expression in estrogen receptor-negative human MDA-MB-231 cells at 2 uM after 24 hrs by Western blotting analysis; type: functional, cell-based
[8] = system: MDA-MB-231; assay: Cell cycle arrest in estrogen receptor-negative human MDA-MB-231 cells assessed as accumulation at G1 phase at 2 uM after 24 hrs by Propidium iodide staining-based flow cytometric analysis (reference value: 54.66 +/- 2.51%); type: functional
[9] = system: MCF7; assay: Inhibition of NFkappaB activity in estrogen receptor-positive human MCF7 cells at 2 uM after 24 hrs by SEAP reporter assay; type: cell-based
[10] = system: MDA-MB-231; assay: Inhibition of NFkappaB activity in estrogen receptor-negative human MDA-MB-231 cells assessed as reduction of cyclin D1 expression at 2 uM after 24 hrs by Western blotting analysis; type: cell-based
[11] = system: MDA-MB-231; assay: Cytotoxicity against estrogen receptor-negative human MDA-MB-231 cells assessed as cell viability after 72 hrs by MTT assay; type: functional, cell-based; conditions: MDA-MB-231, 72 h
[12] = system: MDA-MB-231; assay: Inhibition of NFkappaB activity in estrogen receptor-negative human MDA-MB-231 cells at 2 uM after 24 hrs by SEAP reporter assay; type: cell-based
[13] = system: MDA-MB-231; assay: Cell cycle arrest in estrogen receptor-negative human MDA-MB-231 cells assessed as accumulation at S phase at 2 uM after 24 hrs by Propidium iodide staining-based flow cytometric analysis (reference value: 19 +/- 1%); type: functional
[14] = system: MCF7; assay: Cytotoxicity against estrogen receptor-positive human MCF7 cells assessed as cell viability after 72 hrs by MTT assay; type: functional, cell-based; conditions: MCF7, 72 h
[15] = system: MDA-MB-231; assay: Cell cycle arrest in estrogen receptor-negative human MDA-MB-231 cells assessed as decrease in CDK2 expression at 2 uM after 24 hrs by Western blotting analysis; type: functional, cell-based
[16] = system: MDA-MB-231; assay: Induction of apoptosis in estrogen receptor-negative human MDA-MB-231 cells assessed as increase in Rb cleavage at 2 uM after 24 hrs by Western blotting analysis; type: functional, cell-based
[17] = system: MDA-MB-231; assay: Induction of apoptosis in estrogen receptor-negative human MDA-MB-231 cells assessed as increase in PARP cleavage at 2 uM after 24 hrs by Western blotting analysis; type: functional, cell-based
[18] = system: MDA-MB-231; assay: Cell cycle arrest in estrogen receptor-negative human MDA-MB-231 cells assessed as decrease in Cyclin E expression at 2 uM after 24 hrs by Western blotting analysis; type: functional, cell-based
[19] = system: MDA-MB-231; assay: Induction of apoptosis in estrogen receptor-negative human MDA-MB-231 cells assessed as reduced procaspase-3 level at 2 uM after 24 hrs by Western blotting analysis; type: functional, cell-based
[20] = system: MDA-MB-231; assay: Inhibition of NFkappaB activity in estrogen receptor-negative human MDA-MB-231 cells assessed as upregulation of p27 gene expression at 2 uM after 24 hrs by luciferase reporter gene assay relative to control; type: cell-based
[21] = system: MDA-MB-231; assay: Inhibition of NFkappaB activity in estrogen receptor-negative human MDA-MB-231 cells assessed as inhibition of cyclin D1 promoter activation at 2 uM by chromatin immunoprecipitation assay; type: cell-based
[22] = system: MDA-MB-231; assay: Inhibition of NFkappaB activity in estrogen receptor-negative human MDA-MB-231 cells assessed as cytoplasmic localization of p65 at 2 uM after 24 hrs by ELISA; type: cell-based

Row | Structure (SMILES) | inhibition [9] | IC50 [11] [µM] | inhibition [12] | IC50 [14] [µM] | other results
1 | CCCCCCCCCCCCCCCCC/C=C/C(=O)/C=C/C[C@H]1CC=CC(=O)O1 | Active | 2.87 | Active | 3.04 | inhibition [1]: Active; Activity [2]: 19.3%; NF-kappaB activity inhibition [3]: Active; Activity [4]: Active; inhibition [5]: Active; Activity [6]: inactive; Activity [7]: Active; Activity [8]: 72.6%; inhibition [10]: Active; Activity [13]: 8%
2 | CCCCCCCCCCCCCCCC(=O)/C=C/C[C@H]1CC=CC(=O)O1 | Active | 3.98 | Active | 3.79 | –
3 | CCCCCCCCCCCC(=O)/C=C/C[C@@H]1CC=CC(=O)O1 | Active | 5.42 | Active | 4.56 | –
4 | CCCCCCCC/C=C\CCCCCCCC(=O)/C=C/C[C@H]1CC=CC(=O)O1 | Active | 2.96 | Active | 2.7 | inhibition [1]: Active; Activity [2]: 21.3%; NF-kappaB activity inhibition [3]: Active; Activity [4]: Active; inhibition [5]: Active; Activity [6]: inactive; Activity [7]: Active; Activity [8]: 70.6%; inhibition [10]: Active; Activity [13]: 8%
5 | CCCCCCCCCCCCCCCCCCCC(=O)/C=C/C[C@@H]1CC=CC(=O)O1 | Active | 6.22 | Active | 5.57 | –
6 | CCCCCCCCCCCCCCCCCC(=O)/C=C/C[C@H]1CC=CC(=O)O1 | Active | 3.93 | Active | 4.32 | –
7 | O=C(/C=C/C[C@H]1CC=CC(=O)O1)CCc1cccc(Oc2ccccc2)c1 | Active | 3.2 | Active | 3.36 | –
8 | O=C(/C=C/C[C@H]1CC=CC(=O)O1)CCc1ccc2ccccc2c1 | Active | 3.64 | Active | 4.48 | –
9 | O=C(/C=C/C[C@@H]1CC=CC(=O)O1)CCc1ccco1 | Active | 3.37 | Active | 4.37 | –
10 | O=C(/C=C/C[C@@H]1CC=CC(=O)O1)CCc1cccc(O)c1 | Active | 6.18 | Active | 5.12 | –
11 | O=C(/C=C/C[C@@H]1CC=CC(=O)O1)CCc1ccccc1 [R-RUGULACTONE] | Active | 3.44 | Active | 3.59 | Activity [2]: 21.66%; Activity [15]: Active; NF-kappaB activity inhibition [3]: Active; Activity [4]: Active; Activity [16]: Active; Activity [6]: inactive; Activity [7]: Active; Activity [8]: 70%; Activity [17]: Active; Activity [18]: Active; Activity [13]: 8.33%; Activity [19]: Active
12 | CCCCCCCCCCCCCCCCCCCC(=O)/C=C/C[C@H]1CC=CC(=O)O1 | Active | 3.58 | Active | 3.12 | –
13 | CCCCCCCC/C=C\CCCCCCCC(=O)/C=C/C[C@@H]1CC=CC(=O)O1 | Active | 5.54 | Active | 5.12 | –
14 | CCCCCCCCCCCCCCCCCC(=O)/C=C/C[C@@H]1CC=CC(=O)O1 | Active | 2.1 | Active | 2.32 | inhibition [1]: Active; Activity [2]: 19.6%; fold change (FC) [20]: 2.5; inhibition [21]: Active; Activity [15]: Active; NF-kappaB activity inhibition [3]: Active; Activity [4]: Active; inhibition [5]: Active; Activity [16]: Active; Activity [6]: inactive; Activity [7]: Active; Activity [8]: 74%; inhibition [10]: Active; Activity [17]: Active; inhibition [22]: Active; Activity [18]: Active; Activity [13]: 6.33%; Activity [19]: Active
15 | O=C(/C=C/C[C@@H]1CC=CC(=O)O1)CCc1cccc(Oc2ccccc2)c1 | Active | 4.91 | Active | 4.56 | –
16 | O=C(/C=C/C[C@@H]1CC=CC(=O)O1)CCc1ccc2c(c1)OCO2 | Active | 7.93 | Active | 6.56 | –
17 | CCCCCCCCCCCC(=O)/C=C/C[C@H]1CC=CC(=O)O1 | Active | 3.16 | Active | 4 | –
18 | CC(=O)/C=C/C[C@@H]1CC=CC(=O)O1 | Active | 3.07 | Active | 3.36 | Activity [2]: 26%; Activity [15]: Active; NF-kappaB activity inhibition [3]: Active; Activity [4]: Active; Activity [16]: Active; Activity [6]: inactive; Activity [7]: Active; Activity [8]: 68%; Activity [17]: Active; Activity [18]: Active; Activity [13]: 6%; Activity [19]: Active
19 | O=C(/C=C/C[C@H]1CC=CC(=O)O1)CCc1cccc(O)c1 | Active | 6.68 | Active | 4.32 | –
20 | O=C(/C=C/C[C@H]1CC=CC(=O)O1)CCc1ccco1 | Active | 3.34 | Active | 3.52 | –
21 | CCCCCCCCCCCCCCCCC/C=C/C(=O)/C=C/C[C@@H]1CC=CC(=O)O1 | Active | 4.49 | Active | 3.76 | –
22 | CCCCCCCCCCCCCCCC(=O)/C=C/C[C@@H]1CC=CC(=O)O1 | Active | 4.11 | Active | 3.96 | –
23 | O=C(/C=C/C[C@H]1CC=CC(=O)O1)CCc1ccc2c(c1)OCO2 | Active | 3.09 | Active | 3.31 | –
24 | O=C(/C=C/C[C@@H]1CC=CC(=O)O1)CCc1c[nH]c2ccccc12 | Active | 7.08 | Active | 5.73 | –
25 | O=C(/C=C/C[C@@H]1CC=CC(=O)O1)CCc1ccc2ccccc2c1 | Active | 4.74 | Active | 4.72 | –
26 | O=C(/C=C/C[C@H]1CC=CC(=O)O1)CCc1c[nH]c2ccccc12 | Active | 3.98 | Active | 3.91 | –
